Like-named read-outs stand apart in the source and are kept apart here.
Tests used:
[1] = system: colon26 wild; assay: Cell proliferation inhibitory effect, MTT assay, colon26 wild; type: cell-based; conditions: glycoside employed alone, 37° C. for three days
Protocol: A cultured cancer cell line (colon26 wild) was inoculated into a 96-well plate (1×10^4 cells/100 μL/well), and subsequently a cholestanol glycoside (GlcNAcβ1,4GalChol, Fucα1,3GalChol, GalβChol, or Chol) or each type of the cholestanol glycoside liposomes formed in Example 1 was added to the 96-well plate, followed by incubation at 37° C. for three days. Thereafter, the MTT assay was performed, and the number of live cells was determined. The cell proliferation inhibition rate was obtained by use of the following formula. Cell proliferation inhibition rate(CPI rate)(%)=(1−OD of treated cells/OD of non-treated cells)×100

[2] = system: colon26 wild; conditions: glycoside alone; conventionally shown; cited from earlier work

SMILES	cell proliferation inhibitory effect [1]	cell proliferation inhibitory effect [2]
CC(C)CCC[C@@H](C)[C@H]1CC[C@H]2[C@@H]3CC[C@H]4C[C@@H](O[C@@H]5O[C@H](CO)[C@H](O)[C@H](O[C@@H]6O[C@@H](C)[C@@H](O)[C@@H](O)[C@@H]6O)[C@H]5O)CC[C@]4(C)[C@H]3CC[C@]12C [Fucα1,3GalChol, 3-β-cholestanyl 3-O-(α-L-fucopyranosyl)-β-D-galactopyranoside]	scarcely exhibits cell proliferation inhibitory effect	
CC(=O)N[C@H]1[C@H](O[C@@H]2[C@H](O)[C@@H](O)[C@H](O[C@H]3CC[C@@]4(C)[C@@H](CC[C@@H]5[C@@H]4CC[C@]4(C)[C@@H]([C@H](C)CCCC(C)C)CC[C@@H]54)C3)O[C@@H]2CO)O[C@H](CO)[C@@H](O)[C@@H]1O [GlcNAcβ1,4GalChol, 3-β-cholestanyl 4-O-(2-acetamido-2-deoxy-β-D-glucopyranosyl)-β-D-galactopyranoside]		has conventionally been shown to have cell proliferation inhibitory effect

— US7465753B2, “Glycoside-containing liposome” (Otsuka Pharmaceutical Co., Ltd., priority 2003, dated 2008)
